Measured values: ChEMBL document CHEMBL5465560, “Selectivity Literature for EUbOPEN Chemogenomic Library” (2024)

Experiments:
[1] = target: T1, Tyrosine-protein kinase JAK3 (Homo sapiens) (UniProt P52333); details: at 10 µM
T1 sequence (whole entry): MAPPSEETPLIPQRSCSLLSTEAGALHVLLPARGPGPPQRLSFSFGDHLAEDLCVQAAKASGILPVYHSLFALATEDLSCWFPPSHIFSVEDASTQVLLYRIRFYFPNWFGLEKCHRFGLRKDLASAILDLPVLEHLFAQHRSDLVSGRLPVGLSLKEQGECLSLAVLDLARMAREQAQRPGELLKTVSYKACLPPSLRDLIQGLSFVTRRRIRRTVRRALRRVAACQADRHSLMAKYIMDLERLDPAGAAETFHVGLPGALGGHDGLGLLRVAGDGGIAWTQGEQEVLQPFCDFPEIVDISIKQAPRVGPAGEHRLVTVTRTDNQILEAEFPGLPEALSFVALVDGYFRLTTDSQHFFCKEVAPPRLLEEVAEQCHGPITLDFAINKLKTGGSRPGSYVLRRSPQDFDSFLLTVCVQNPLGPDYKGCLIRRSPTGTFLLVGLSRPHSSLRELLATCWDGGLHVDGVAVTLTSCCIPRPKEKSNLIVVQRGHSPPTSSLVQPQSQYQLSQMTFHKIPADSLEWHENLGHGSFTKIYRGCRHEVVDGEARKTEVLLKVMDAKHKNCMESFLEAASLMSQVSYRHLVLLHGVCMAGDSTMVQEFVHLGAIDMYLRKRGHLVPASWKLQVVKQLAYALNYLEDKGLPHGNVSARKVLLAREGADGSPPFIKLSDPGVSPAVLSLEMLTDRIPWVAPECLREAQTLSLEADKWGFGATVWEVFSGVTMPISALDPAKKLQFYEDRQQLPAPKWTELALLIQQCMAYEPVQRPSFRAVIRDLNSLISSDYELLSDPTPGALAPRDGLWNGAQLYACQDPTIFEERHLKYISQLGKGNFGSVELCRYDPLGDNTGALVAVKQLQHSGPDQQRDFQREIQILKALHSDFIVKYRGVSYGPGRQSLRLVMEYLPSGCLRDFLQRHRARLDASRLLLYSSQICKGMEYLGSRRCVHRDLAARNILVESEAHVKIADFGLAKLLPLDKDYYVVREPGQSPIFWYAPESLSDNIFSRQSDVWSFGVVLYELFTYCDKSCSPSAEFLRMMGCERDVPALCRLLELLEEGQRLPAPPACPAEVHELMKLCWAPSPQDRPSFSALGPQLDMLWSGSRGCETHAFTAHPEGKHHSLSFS

[2] = target: T2, Serine/threonine-protein kinase DCLK2 (Homo sapiens) (UniProt Q8N568); test: Selectivity interaction (ProQinase) EUB0000171b DCLK2
T2 sequence (whole entry): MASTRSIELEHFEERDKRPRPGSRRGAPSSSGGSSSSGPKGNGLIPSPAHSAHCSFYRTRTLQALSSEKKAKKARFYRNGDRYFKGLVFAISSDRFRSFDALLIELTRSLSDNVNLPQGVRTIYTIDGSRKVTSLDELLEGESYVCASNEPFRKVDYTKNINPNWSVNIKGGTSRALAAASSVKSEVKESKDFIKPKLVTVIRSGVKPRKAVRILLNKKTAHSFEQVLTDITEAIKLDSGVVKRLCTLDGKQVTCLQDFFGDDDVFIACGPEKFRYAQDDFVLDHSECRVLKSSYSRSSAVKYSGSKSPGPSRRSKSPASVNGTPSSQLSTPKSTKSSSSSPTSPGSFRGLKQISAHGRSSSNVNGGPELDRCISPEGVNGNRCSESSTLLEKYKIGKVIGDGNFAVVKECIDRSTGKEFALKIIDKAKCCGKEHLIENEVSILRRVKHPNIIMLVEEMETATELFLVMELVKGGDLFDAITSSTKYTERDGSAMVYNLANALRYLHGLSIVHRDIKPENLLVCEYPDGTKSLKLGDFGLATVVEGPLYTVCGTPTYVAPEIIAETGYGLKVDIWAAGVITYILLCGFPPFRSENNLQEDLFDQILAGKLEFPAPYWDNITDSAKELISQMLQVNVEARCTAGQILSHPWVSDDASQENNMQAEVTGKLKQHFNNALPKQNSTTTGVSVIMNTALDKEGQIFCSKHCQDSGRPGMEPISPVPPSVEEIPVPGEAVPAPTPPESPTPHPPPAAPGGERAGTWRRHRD

[3] = target: T3, Kinase suppressor of Ras 1 (Homo sapiens) (UniProt Q8IVT5); test: Selectivity interaction (ActivX KiNativ screen (ex vivo kinase selectivity in human PBMCs)) EUB0001619a KSR1; assay type: cell-based; details: PBMC, at 1 µM
T3 sequence (whole entry): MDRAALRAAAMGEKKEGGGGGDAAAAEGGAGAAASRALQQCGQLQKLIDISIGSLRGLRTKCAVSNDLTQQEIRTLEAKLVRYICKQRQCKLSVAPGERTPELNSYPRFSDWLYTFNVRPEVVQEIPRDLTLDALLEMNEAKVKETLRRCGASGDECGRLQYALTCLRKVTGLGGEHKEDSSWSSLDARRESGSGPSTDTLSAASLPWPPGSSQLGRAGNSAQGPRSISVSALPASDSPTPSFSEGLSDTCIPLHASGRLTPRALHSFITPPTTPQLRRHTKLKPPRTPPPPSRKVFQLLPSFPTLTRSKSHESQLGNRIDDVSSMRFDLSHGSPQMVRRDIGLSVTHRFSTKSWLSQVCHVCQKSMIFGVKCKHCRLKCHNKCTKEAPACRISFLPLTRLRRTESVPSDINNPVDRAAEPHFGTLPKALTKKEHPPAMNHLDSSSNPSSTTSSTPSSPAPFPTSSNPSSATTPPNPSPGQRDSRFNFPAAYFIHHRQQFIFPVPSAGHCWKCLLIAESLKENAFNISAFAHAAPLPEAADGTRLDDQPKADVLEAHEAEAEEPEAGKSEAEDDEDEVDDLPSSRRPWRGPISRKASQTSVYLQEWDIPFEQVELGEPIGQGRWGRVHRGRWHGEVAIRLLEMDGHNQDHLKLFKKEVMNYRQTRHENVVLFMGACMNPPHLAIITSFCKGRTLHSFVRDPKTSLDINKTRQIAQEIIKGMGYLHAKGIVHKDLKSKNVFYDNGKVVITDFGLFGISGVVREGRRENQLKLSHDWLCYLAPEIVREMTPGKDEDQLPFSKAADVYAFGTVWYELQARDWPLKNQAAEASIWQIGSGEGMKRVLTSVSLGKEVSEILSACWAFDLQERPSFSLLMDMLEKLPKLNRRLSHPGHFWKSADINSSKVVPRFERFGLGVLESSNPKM

For `Cc1cc([C@@H](C)Nc2ccccc2C(=O)O)c2nc(N3CCOCC3)cc(=O)n2c1` [AZD-6482], the % of control [1] was 94%.

With `C=CC(=O)Nc1cccc(C(=O)Nc2ccc(Nc3cc(-c4[nH]c(SC)nc4C)ccn3)cc2)c1` the % of control ([2]; at 1 µM) was 95% and the % of control ([2]; at 5 µM) was 94%.

`N#Cc1cccc(-c2c[nH]c3ncnc(N4CCOCC4)c23)c1` gave a % of inhibition [3] of 12%.
